# Paper PMC5762315, “Inhibition of polo-like kinase 4 (PLK4): a new therapeutic option for rhabdoid tumors and pediatric medulloblastoma” (Oncotarget, 2017)
# Values joined by “and” are separate entries in the source; they are usually repeats but may differ in a detail not shown here. Equal values may be shown once.
# Columns and labels:
# Assay in all cases: biochemical
# Format in all cases: biochemical
# various kinases [1] = target: T1, various kinases (Homo sapiens, UniProt Q13237); settings: kinase PRKG2 (PKG2); ZLYTE
# T1 sequence (Q13237 1-762): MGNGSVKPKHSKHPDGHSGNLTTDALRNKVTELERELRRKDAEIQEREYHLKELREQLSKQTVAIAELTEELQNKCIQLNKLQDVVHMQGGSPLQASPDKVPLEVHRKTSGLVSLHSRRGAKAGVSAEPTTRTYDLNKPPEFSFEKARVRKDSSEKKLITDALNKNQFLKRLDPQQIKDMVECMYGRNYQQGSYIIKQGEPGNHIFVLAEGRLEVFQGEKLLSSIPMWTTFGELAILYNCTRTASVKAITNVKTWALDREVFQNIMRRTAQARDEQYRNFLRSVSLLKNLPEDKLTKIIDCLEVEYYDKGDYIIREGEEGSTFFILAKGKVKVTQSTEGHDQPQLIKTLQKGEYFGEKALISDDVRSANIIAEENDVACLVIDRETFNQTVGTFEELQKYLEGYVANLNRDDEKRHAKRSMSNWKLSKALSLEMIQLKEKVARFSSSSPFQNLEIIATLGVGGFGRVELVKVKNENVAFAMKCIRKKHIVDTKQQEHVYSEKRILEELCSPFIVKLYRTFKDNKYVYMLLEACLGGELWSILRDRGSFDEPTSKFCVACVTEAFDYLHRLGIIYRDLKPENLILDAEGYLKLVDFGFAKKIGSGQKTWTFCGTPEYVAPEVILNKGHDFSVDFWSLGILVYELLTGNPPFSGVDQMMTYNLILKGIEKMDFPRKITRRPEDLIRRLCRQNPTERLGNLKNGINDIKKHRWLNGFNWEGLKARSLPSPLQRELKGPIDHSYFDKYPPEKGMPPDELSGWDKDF
# various kinases [2] = target: various kinases (Homo sapiens, UniProt Q9Y6E0); settings: kinase STK24 (MST3); ZLYTE
# various kinases (Homo sapiens, UniProt Q9Y6E0), sequence (Q9Y6E0 whole entry): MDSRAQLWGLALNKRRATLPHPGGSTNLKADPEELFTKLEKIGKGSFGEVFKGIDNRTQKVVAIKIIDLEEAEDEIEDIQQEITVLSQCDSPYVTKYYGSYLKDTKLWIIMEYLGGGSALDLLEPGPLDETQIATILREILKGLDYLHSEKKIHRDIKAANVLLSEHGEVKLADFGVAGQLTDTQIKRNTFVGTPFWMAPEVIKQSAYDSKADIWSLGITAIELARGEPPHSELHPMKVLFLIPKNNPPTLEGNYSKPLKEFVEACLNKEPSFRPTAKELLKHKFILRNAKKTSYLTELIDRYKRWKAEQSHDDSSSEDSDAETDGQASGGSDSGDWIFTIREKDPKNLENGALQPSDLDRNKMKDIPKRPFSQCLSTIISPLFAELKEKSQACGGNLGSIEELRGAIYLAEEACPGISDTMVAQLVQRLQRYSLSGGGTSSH
# various kinases [3] = target: various kinases (Homo sapiens, UniProt Q9Y6M4); settings: CSNK1G3 (CK1 gamma 3)
# various kinases [4] = target: various kinases (Homo sapiens, UniProt P54760); settings: EPHB4
# various kinases (Homo sapiens, UniProt P54760), sequence (P54760 16-987): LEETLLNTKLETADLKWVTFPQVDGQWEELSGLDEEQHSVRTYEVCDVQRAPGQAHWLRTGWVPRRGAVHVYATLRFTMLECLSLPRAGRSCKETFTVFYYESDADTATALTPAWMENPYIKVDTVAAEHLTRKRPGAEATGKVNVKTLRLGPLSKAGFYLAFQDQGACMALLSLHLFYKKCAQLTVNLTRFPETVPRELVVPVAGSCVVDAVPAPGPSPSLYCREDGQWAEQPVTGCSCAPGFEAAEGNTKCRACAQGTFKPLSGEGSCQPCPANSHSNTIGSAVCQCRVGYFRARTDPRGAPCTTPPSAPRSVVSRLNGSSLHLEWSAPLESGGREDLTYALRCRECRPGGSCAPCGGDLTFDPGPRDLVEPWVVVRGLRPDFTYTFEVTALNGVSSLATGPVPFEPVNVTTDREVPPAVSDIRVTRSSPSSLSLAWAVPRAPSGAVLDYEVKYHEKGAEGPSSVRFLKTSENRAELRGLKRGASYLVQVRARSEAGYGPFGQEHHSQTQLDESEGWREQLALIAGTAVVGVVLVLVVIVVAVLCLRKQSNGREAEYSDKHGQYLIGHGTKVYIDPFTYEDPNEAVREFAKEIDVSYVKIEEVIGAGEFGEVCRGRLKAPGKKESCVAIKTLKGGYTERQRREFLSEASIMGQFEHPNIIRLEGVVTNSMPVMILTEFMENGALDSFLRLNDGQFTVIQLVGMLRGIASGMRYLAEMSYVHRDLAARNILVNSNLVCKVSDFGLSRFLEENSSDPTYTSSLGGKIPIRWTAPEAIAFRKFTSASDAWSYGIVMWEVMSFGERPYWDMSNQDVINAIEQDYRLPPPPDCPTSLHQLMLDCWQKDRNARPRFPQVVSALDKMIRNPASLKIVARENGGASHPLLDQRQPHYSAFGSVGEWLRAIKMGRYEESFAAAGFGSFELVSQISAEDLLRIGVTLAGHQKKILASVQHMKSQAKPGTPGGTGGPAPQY
# various kinases [5] = target: various kinases (Homo sapiens, UniProt P00533, L858R); settings: EGFR (ErbB1) L858R
# various kinases (Homo sapiens, UniProt P00533, L858R), sequence (P00533 25-1210 L858R): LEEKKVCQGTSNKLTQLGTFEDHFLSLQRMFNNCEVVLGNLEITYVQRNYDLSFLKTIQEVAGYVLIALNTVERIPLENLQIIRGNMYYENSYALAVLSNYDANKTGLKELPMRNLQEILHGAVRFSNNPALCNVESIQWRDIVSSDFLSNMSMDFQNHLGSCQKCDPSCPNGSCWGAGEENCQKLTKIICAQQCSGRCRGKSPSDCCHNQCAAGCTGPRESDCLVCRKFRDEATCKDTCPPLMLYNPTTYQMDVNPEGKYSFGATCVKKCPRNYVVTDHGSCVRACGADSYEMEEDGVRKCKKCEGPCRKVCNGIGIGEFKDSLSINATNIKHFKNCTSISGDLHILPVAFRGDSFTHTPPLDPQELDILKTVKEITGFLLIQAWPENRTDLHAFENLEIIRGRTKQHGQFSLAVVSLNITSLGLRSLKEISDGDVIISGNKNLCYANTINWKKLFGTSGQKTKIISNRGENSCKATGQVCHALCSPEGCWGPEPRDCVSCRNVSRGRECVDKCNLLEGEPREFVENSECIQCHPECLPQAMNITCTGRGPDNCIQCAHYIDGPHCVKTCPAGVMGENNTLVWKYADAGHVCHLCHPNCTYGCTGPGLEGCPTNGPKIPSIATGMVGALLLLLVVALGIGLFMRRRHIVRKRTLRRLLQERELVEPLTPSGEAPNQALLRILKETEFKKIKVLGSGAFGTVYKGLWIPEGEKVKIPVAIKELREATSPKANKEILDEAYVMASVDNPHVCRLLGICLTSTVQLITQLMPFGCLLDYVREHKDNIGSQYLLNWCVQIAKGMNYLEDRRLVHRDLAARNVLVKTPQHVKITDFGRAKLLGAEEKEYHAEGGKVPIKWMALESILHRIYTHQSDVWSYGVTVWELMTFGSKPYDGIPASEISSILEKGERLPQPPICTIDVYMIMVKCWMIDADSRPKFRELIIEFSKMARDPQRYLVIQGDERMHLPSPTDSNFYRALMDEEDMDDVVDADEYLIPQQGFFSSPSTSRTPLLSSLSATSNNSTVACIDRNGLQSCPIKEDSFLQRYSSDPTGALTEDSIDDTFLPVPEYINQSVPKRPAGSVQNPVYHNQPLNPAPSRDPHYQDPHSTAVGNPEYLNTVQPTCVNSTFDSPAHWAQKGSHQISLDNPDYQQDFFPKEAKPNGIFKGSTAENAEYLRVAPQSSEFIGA
# various kinases [6] = target: various kinases (Homo sapiens, UniProt P23458); settings: JAK1
# various kinases [7] = target: various kinases (Homo sapiens, UniProt P48730); settings: CSNK1D (CK1 delta)
# various kinases [8] = target: various kinases (Homo sapiens, UniProt P00533); settings: EGFR (ErbB1)
# various kinases [9] = target: various kinases (Homo sapiens, UniProt O96013); settings: PAK4
# various kinases [10] = target: various kinases (Homo sapiens, UniProt P54756); settings: EPHA5
# various kinases [11] = target: various kinases (Homo sapiens, UniProt P04626); settings: ERBB2 (HER2)
# various kinases (Homo sapiens, UniProt P04626), sequence (P04626 23-1255): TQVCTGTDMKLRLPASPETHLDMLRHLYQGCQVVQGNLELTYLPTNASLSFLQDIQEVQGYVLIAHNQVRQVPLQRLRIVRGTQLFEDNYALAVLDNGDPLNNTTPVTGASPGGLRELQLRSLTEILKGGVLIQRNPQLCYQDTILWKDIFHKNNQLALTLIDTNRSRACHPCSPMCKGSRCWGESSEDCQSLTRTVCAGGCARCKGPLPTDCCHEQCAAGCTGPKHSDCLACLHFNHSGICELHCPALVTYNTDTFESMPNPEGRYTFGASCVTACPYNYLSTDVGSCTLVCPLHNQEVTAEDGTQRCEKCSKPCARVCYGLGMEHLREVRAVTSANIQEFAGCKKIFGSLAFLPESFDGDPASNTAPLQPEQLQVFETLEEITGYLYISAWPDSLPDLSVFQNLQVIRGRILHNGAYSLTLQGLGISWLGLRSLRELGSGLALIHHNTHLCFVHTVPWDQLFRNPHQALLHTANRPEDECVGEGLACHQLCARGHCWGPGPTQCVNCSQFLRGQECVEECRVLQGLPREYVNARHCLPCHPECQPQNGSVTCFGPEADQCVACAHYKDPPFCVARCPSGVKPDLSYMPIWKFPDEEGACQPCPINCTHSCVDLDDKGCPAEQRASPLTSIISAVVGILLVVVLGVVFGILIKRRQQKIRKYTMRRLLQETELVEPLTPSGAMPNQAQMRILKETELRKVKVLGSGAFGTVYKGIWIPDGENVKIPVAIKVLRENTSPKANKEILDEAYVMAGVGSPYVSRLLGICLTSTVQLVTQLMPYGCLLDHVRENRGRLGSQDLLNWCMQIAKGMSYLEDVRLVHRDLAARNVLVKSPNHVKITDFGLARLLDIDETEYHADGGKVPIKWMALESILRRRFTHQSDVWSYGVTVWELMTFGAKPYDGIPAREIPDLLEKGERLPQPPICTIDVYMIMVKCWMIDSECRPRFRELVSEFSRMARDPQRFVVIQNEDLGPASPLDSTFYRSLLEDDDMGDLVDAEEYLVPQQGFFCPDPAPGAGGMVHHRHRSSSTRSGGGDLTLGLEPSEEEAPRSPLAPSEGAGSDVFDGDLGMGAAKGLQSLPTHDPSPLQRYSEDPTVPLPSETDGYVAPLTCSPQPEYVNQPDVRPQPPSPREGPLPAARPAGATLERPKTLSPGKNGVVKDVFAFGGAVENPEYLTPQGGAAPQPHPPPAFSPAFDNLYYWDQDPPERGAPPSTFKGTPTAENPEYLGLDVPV
# various kinases [12] = target: various kinases (Homo sapiens, UniProt P30530); settings: AXL
# various kinases (Homo sapiens, UniProt P30530), sequence (P30530 26-894): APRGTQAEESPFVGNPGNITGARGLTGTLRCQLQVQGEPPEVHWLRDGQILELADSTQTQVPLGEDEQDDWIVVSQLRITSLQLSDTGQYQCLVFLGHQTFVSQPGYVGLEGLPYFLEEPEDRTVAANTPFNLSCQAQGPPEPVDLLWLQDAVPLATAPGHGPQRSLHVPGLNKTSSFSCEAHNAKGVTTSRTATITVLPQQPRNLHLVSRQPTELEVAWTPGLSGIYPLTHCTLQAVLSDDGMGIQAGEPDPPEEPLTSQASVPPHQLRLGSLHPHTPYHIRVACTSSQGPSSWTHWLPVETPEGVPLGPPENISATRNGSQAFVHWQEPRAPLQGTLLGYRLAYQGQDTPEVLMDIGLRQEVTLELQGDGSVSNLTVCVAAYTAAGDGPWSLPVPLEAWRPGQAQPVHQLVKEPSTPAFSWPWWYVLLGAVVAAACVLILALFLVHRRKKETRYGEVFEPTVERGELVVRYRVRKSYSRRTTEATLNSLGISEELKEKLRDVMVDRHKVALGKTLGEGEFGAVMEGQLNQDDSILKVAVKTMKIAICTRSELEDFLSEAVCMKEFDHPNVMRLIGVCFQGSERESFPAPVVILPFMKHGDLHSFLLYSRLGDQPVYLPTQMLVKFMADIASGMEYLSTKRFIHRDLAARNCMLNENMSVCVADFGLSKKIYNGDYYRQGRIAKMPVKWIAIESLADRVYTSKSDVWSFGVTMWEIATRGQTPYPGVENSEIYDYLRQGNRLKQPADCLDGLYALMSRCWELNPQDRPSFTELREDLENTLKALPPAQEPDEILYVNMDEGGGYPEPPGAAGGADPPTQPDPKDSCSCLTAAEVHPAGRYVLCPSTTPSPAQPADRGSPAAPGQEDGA
# various kinases [13] = target: various kinases (Homo sapiens, UniProt Q14680); settings: MELK
# various kinases [14] = target: various kinases (Homo sapiens, UniProt P68400); settings: CSNK2A1 (CK2 alpha 1)
# various kinases (Homo sapiens, UniProt P68400), sequence (P68400 whole entry): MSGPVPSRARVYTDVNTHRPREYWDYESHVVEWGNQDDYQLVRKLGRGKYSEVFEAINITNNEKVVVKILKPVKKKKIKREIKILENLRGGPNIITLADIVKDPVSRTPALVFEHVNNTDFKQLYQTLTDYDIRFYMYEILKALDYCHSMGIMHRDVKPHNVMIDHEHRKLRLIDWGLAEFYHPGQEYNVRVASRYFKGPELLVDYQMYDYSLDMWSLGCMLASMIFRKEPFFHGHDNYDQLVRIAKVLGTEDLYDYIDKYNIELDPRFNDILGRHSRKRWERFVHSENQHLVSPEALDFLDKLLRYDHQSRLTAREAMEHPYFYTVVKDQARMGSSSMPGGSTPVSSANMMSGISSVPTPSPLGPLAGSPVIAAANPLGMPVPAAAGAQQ
# various kinases [15] = target: various kinases (Homo sapiens, UniProt P07333); settings: CSF1R (FMS)
# various kinases [16] = target: T2, various kinases (Homo sapiens, UniProt P43403); settings: kinase ZAP70; ZLYTE
# T2 sequence (P43403 1-619): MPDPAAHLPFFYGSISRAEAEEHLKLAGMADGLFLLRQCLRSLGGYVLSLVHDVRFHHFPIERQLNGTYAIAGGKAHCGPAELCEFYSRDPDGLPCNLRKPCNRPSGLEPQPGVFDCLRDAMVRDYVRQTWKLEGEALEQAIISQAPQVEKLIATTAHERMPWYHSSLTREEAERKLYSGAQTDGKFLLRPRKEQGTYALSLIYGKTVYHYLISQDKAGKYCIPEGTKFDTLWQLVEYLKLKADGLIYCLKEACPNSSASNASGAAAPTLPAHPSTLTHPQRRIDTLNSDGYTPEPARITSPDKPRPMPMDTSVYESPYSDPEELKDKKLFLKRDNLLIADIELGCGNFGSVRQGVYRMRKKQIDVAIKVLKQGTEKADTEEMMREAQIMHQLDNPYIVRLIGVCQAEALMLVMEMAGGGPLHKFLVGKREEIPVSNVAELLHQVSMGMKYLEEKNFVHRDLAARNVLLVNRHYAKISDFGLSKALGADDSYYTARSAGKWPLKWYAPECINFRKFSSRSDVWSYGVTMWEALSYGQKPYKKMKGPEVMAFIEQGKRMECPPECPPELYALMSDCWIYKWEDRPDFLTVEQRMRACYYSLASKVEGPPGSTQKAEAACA
# various kinases [17] = target: various kinases (Homo sapiens, UniProt P49674, R178C); settings: CSNK1E (CK1 epsilon) R178C
# various kinases [18] = target: various kinases (Homo sapiens, UniProt Q96L34); settings: MARK4
# Wherever % Inhibition Average is given: test concentration or dose not given here.
# Wherever % Inhibition Duplicate #1 is given: test concentration or dose not given here.
# Wherever % Inhibition Duplicate #2 is given: test concentration or dose not given here.
compound,measurement,setting,value
COc1ccc2c(c1)[C@]1(C[C@H]1c1ccc3c(/C=C/c4ccc(CN5C[C@@H](C)O[C@@H](C)C5)cc4)n[nH]c3c1)C(=O)N2 [CFI-400945],% Inhibition Average,various kinases [1],1%
same,% Inhibition Duplicate #1,various kinases [1],2%
same,% Inhibition Duplicate #2,various kinases [1],0%
same,% Inhibition Average,various kinases [2],7%
same,% Inhibition Duplicate #1,various kinases [2],7%
same,% Inhibition Duplicate #2,various kinases [2],7%
same,% Inhibition,various kinases [3],2% and -1%
same,% Inhibition,various kinases [4],5% and 8%
same,% Inhibition,various kinases [5],1% and 2%
same,% Inhibition,various kinases [6],1% and 0%
same,% Inhibition,various kinases [7],-2% and 3%
same,% Inhibition,various kinases [8],1% and 7%
same,% Inhibition,various kinases [9],10% and 9%
same,% Inhibition,various kinases [10],8% and 5%
same,% Inhibition,various kinases [11],-2% and 1%
same,% Inhibition,various kinases [12],10% and 11%
same,% Inhibition,various kinases [13],9% and 18%
same,% Inhibition,various kinases [14],9% and 4%
same,% Inhibition,various kinases [15],14% and 15%
same,% Inhibition Average,various kinases [16],2%
same,% Inhibition Duplicate #1,various kinases [16],0%
same,% Inhibition Duplicate #2,various kinases [16],4%
same,% Inhibition,various kinases [17],1%
same,% Inhibition,various kinases [18],8% and 3%
